The record followed here is BindingDB's records for doi:10.1021/jm960092w (Agouron Pharmaceuticals, 1996).

The assay concerns the target T1, Dimer of Gag-Pol polyprotein [489-587] (Human immunodeficiency virus 1, UniProt P12497).
T1 construct: 489-587
In words: Protease Inhibition Assay. Particulars: pH 5.6; 37 °C. The method, then:
Protease activity was measured by continuous chromogenic assay. The chromogenic peptide His-Lys-Ala-Arg-Val-Leu-(p-NO2-Phe)-Glu-Ala-Nleu-Ser was used as a substrate. Reactions were followed by the decrease of absorbance at 300 nm measured by spectrophotometer. Experimental results were analyzed by the nonlinear regression analysis, using a mathematical model for tight binding inhibitors.

The structures appear in SMILES notation.

For `CC(C)(C)NC(=O)c1ccccc1C[C@@H](O)[C@H](Cc1ccccc1)NC(=O)[C@H](CC(N)=O)NC(=O)c1ccc2ccccc2n1` [(2S)-N-[(2S,3R)-4-[2-(tert-butylcarbamoyl)phenyl]-3-hydroxy-1-phenylbutan-2-yl]-2-(quinolin-2-ylformamido)butanediamide], the Ki stood at 2 nM. This lies in the single-digit nanomolar range.
